One data set has as its system PDAC cell lines. The experiment in a line: tetrazolium salt reduction (WST) assay in PDAC cell lines. Format: cell-based, human. As to conditions: WST screen, three human pancreatic cancer cell lines. On the procedure: To determine the effects of LXR ligands on PDAC cell proliferation, cells were treated with synthetic LXR agonist GW3965 and live cells were quantified using trypan blue exclusion assays. […] FIGS. 8A, 8B, and 8C show dose-dependent decreases in cell proliferation in BxPC-3, Mia-PaCa-2, and PANC-1, respectively upon treatment with increasing GW3965 concentrations. […] Clonogenic assays were also employed to evaluate the effects of long-term LXR ligand treatment on cell proliferation and colony formation. […] These findings indicate that LXRs are involved in PDAC cell proliferation and targeting LXRs with ligands perturb their normal functions in cell proliferation.
(§1) The initial identification and subsequent characterization of the two novel LXR ligands and their derivative compounds was carried out in screens in three human pancreatic cancer cell and one non-transformed human pancreatic epithelial cell line in three or more replicate experiments for each cell line using the WST tetrazolium salt reduction assays.

The test system of another data set is HPNE cells. The experiment in a line: growth of non-transformed pancreatic epithelial cells (WST screen; FIG. 32D). Format: cell-based, human. As to conditions: WST screen. How it is done: as §1
(§2) The synthesis and characterization of KD-01-39, a derivative of 3A4, have not been described previously.

Another data set has as its system KPC tumor cells. The experiment in a line: growth of KPC tumor cells from mouse model of PDAC. Format: cell-based. The source says: The effects of the ligands and derivatives on the growth of PDAC cells were further validated by cell counting and clonogenic assays.
For another data set, the system named is human PDAC cell lines. The data set can be described thus: cell viability response curves with increasing concentrations. Type of data set: cell-based.
A further data set relates to MCF-7. The data set can be described thus: expression of LXR target genes in breast cancer cells. Format: cell-based. As to conditions: MCF-7, ER-positive. The source says:
(§3) The inhibitory effects of LXR ligands in breast cancer cells have been shown previously. […] The observed decreases in LXR protein levels were not affected by proteasome inhibitor MG132.

A further data set has as its system MDA-MB-231. The data set is described as above. Type of data set: cell-based. As to conditions: MDA-MB-231, triple-negative.
Description: as §3

A further data set deals with MCF-7 cells. The data set can be described thus: breast cancer cell proliferation. Type of data set: cell-based.
Description: as §3

The next data set relates to MDA-MB-231 cells. The experiment in a line: breast cancer cell proliferation. Format: cell-based.
Description: as §3

For another data set, the system named is LXR in MDA-MB-231 cells. The experiment in a line: western blot of LXR protein levels. Type of data set: cell-based.
Description: as §3

Data set [1] has as its system LXR proteins in MCF-7 cells. The experiment in a line: western blot of LXR protein levels. Format: cell-based.
Description: as §3
(In general: In western blotting, separated proteins are transferred to a membrane and probed.)

The subject of data set [2] is LXR target genes SREBF1c, ABCA1, and ABCG1. The data set can be described thus: expression of LXR target genes in pancreatic cancer cell lines. Format: cell-based, human. The source says:
To characterize the activity of the newly discovered ligands, the expression of LXR target genes SREBF1c, ABCA1, and ABCG1 was examined following treatment with vehicle, synthetic agonist GW3965, and Compounds 1E5 and 3A4. […] Basal expression of SREBF1c, the canonical LXR target gene involved in the regulation of glucose and lipid metabolism, was disrupted by the addition of novel LXR ligands, whereas their expression was induced following treatment with synthetic agonist GW3965 in all three pancreatic cancer cell lines tested, whereas the effects on ABCA1 and ABCG1 varied between the two novel ligands and across the cell lines.
(§4) To elucidate mechanisms of inverse agonism by the novel ligands, TR-FRET experiments were conducted to determine the effects of 1E5 and 3A4 on the recruitment of NR co-activators and co-repressors. […] In addition to their functions as inverse agonists, extended treatments with 1E5 and 3A4 also destabilized or decreased LXR proteins.

The subject of data set [3] is LXR ligand-binding domain. The experiment in a line: TR-FRET assay of co-activator and co-repressor peptide recruitment. Type of data set: biochemical. How it is done: as §4, §2
The next data set addresses T1, LXR proteins (Homo sapiens, UniProt P55055).
T1 construct: expression of LXR proteins in different pancreatic cancer cell lines following long-term treatments; endogenous in cells; host or cells: pancreatic cancer cell lines (BxPC-3, MIA PaCa-2, PANC-1 named elsewhere)
The data set can be described thus: LXR protein levels after long-term treatment of pancreatic cancer cells. Format: cell-based. As to conditions: long-term treatments. How it is done:
as §4

The subject of a further data set is pancreatic cancer cells. The data set can be described thus: metabolomic analysis using mass spectroscopy in pancreatic cancer cells. Format: cell-based, human. Conditions: PDAC cells. On the procedure:
To further characterize the mechanisms of action of novel LXR modulators 1E5 and 3A4, metabolomic and transcriptomic analysis of pancreatic cancer cells were conducted in response to treatment. […] PDAC tumors have altered metabolism to support its growth and survival. Previous studies have reported that Kras upregulates the non-canonical use of glutamine to maintain NADPH/NADP+ ratio which in turn regulates redox homeostasis. This unconventional use of glutamine by PDAC cells fuel cancer cell proliferation and survival. Glutamine metabolism in PDAC has two unique functions: 1. Glutamine-derived Glutamate is used for glutathione (GSH) biosynthesis. 2. Glutamine facilitates generation of reducing equivalents in the form of NADPH. In PDAC mitochondria, glutamine is converted to glutamate by glutaminase enzyme (GLS1). This glutamine derived glutamate is conventionally converted to alpha-ketoglutarate by glutamate dehydrogenase (GLUD1) to fuel citric acid cycle. However, in PDAC cells glutamate is converted to aspartate in cytosol which is converted to malic acid and NADPH is produced during this process. This process is essential to maintain redox homeostasis in the tumor. However, this non-canonical use of glutamine is dispensable in non-malignant cells. Therefore, targeting GLS1 to decrease the bioavailability of glutamate to act as source of nitrogen and carbon for the synthesis of amino acids and nucleic acids is a viable strategy to target PDAC tumors. […] The effect of 1E5 is similar to BPTES, a potent GLS1 inhibitor.
TCA cycle intermediates act as anaplerotic substrate for gluconeogenesis and lipogenesis. […] GOT2 converts glutamine-derived glutamate to alpha-KG. During this process oxaloacetate is converted to aspartate which is required to maintain redox homeostasis. Studies have shown that inhibition of GOT2 in PDAC promotes senescence.
(§5) To determine if 1E5 and 3A4 can induce apoptosis, PDAC cells were treated with the LXR ligands and subjected to pro-apoptotic caspase cleavage analysis. […] Metabolomic profiling following treatments with the two ligands indicated the activation of two distinct cell death mechanisms. Ferroptosis is a non-apoptotic form of cell death which is characterized by accumulation of lipid peroxides by loss of glutathione peroxidase 4 (GPX4) activity. It can also be induced by accumulation of intracellular iron and depletion of reduced glutathione (GSH). GPX4 is an anti-oxidant enzyme involved in conversion of PUFA peroxides to PUFA alcohols. GSH is a critical cofactor of GPX4 and acts as a reducing agent to reduce the lipid peroxides. Therefore, direct inhibition of GPX4 activity or reduction in GSH levels trigger ferroptosis. The second mechanism of inducing ferroptosis is accumulation of polyunsaturated fatty acids (PUFAs) in cells. Studies have shown that PUFAs are the most susceptible lipids to peroxidation.
Expression profiles of ferroptosis genes in RNAseq data following 1E5 treatment were also consistent with its pro-ferroptotic actions. […] Polyamines are amino-acid derived polycationic alkylamines that are required for the growth of cells. SAT1 catalyzes the acetylation of spermidine and spermine to form N-acetylspermidine and N-acetylspermine respectively. […] SAT1 induces ferroptosis by upregulating the peroxidation of PUFA arachidonic acid. Ceramides are sphingolipids consisting of sphingosine and fatty acid acyl chain. Cellular stress leads to upregulation of ceramide synthesis which mediate caspase-dependent apoptosis. Accumulation of ceramides/hexosylceramides in the mitochondria leads to the formation of channel like structures in the mitochondrial outer membrane which increases the permeability of pro-apoptotic proteins such as cytochrome c. ER stress is also known to activate de-novo synthesis of ceramides and induce apoptosis by increasing the flow of Ca ions and upregulating the unfolded protein stress response. […]

Another data set relates to PDAC cells. The experiment in a line: pro-apoptotic caspase cleavage analysis. Type of data set: cell-based, human. On the procedure: as §5
Accumulation of C18 ceramides in the mitochondria leads to the recruitment of auto phagosomes in mitochondria and induces LC3-ceramide dependent lethal mitophagy. […] Darkened circles indicate increases and the size of the circle corresponds to the significance of changes.

In the next data set the test system is LXR-LBD. The experiment in a line: differential scanning fluorimetry. Format: binding.
Description: as §2
(DSF heats the sample and reads unfolding from a dye or from intrinsic fluorescence.)

T1 sequence (P55055 whole entry): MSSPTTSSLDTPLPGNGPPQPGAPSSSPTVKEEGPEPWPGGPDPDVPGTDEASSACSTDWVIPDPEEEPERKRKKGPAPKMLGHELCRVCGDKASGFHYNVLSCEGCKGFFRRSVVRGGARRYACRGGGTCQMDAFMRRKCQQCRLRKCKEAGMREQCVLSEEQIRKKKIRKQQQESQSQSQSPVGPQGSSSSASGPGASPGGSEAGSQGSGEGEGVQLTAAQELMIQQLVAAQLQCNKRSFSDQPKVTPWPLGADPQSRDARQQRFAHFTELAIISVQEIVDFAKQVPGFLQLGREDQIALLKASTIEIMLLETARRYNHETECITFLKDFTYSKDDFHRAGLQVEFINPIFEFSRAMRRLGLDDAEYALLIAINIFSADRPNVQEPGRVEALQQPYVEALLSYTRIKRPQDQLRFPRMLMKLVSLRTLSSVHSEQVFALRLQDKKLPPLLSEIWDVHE

For `COc1cc(OC)cc(C(=O)N2CCN(c3ccccc3C)CC2)c1` [Compound 3A4, 1-(3,5-dimethoxybenzoyl)-4-(2-methylphenyl)piperazine], the “human pancreatic cancer cells growth” value in the data set on PDAC cell lines is recorded as “effective in inhibiting human pancreatic cancer cells growth”. Moreover, the “activity against non-transformed HPNE cells” value in the data set with HPNE cells is given as “little activity”. In the data set with KPC tumor cells, the “growth of KPC tumor cells” value is “blocked the growth”. Besides, in the data set with human PDAC cell lines, the “potency in response curves compared to GW3965” value is “more potent activity as compared to GW3965”. The “expression of LXR target genes” value in the data set on MCF-7 is “generally down-regulated”; with MDA-MB-231 it was “generally down-regulated”; in [2] (three pancreatic cancer cell lines), “reducing the expression of LXR target genes”. In the data set with MCF-7 cells, the “proliferation of MCF-7 cells” value was “inhibited the proliferation”. Further, the “proliferation of MDA-MB-231 cells” value in the data set on MDA-MB-231 cells is “inhibited”. Besides, the “LXR protein levels (degradation)” value with LXR in MDA-MB-231 cells is “only 1E5 degraded LXR”; in [1] it was “act as degraders of LXR proteins”. In addition, the “basal expression of SREBF1c” value in data set [2] (all three pancreatic cancer cell lines) is listed as “disrupted”. In addition, the “expression of FASN, SCD, and ACC” value in data set [2] (pancreatic cancer cells) is given as “decreased the expression”. The “co-activator peptide binding to LXR ligand-binding domain” value in [3] (co-activator (D22) peptide) is on record as “did not affect co-activator peptide binding”. Also, the “binding of NCOR and SMRT co-repressor peptides” value in data set [3] (co-repressor (NCOR and SMRT-ID2) peptides) is “increased the binding”. Besides, at LXR proteins, the LXR protein levels result is reported as “decreased LXR protein levels”. The “levels of C18 and C16 ceramides and hexosylceramides” value in the data set on pancreatic cancer cells was “significantly upregulates”. In the data set with PDAC cells, the pro-apoptotic caspase cleavage result was “induced pro-apoptotic caspase cleavage”. The apoptosis result in the data set on PDAC cells (PDAC cells) is “induces caspase-dependent apoptosis”. The “LXR-LBD structure and dye dissociation with increasing temperature” value in the data set on LXR-LBD was “disrupted the LBD structure”.

Values taken from patent publication US20220273658A1, “SMALL MOLECULE LIVER X RECEPTOR MODULATORS AND USES THEREOF” (University of Houston System, priority 2019, published 2022).
